Several values for one entry are separate records, joined by “and”; a condition that tells them apart may be missing. Equal entries are not always repeated.
What was measured:
[1] = target: B/Memphis cap-midlink double domain (Influenza B virus, UniProt Q5V8X3); assay: biochemical; format: binding, influenza B/Memphis/13/03
[2] = tested on: isolated influenza A PB2 cap-binding domain; settings: cited from earlier work
[3] = tested on: influenza B strains; settings: cited from earlier work

Chain of B/Memphis cap-midlink double domain (Q5V8X3 249-540 limits assumed): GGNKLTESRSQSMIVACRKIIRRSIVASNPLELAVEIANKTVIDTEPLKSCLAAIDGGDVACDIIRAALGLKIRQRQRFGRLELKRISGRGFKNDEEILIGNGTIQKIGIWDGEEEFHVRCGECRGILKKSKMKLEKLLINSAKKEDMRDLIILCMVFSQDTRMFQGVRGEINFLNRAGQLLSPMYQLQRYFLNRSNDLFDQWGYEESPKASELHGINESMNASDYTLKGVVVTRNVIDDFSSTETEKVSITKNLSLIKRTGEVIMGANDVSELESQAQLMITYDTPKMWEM

## O=C(O)[C@H]1C2CCC(CC2)[C@@H]1Nc1nc(-c2c[nH]c3ncc(F)cc23)ncc1F [VX-787]
[1]
  Kd: 1200 nM
[2]
  times tighter binding than m^7GTP: ~60 times
[2]; read-out: affinity to cap-binding domain alone
  Kd: ~24 nM and 24 nM
[3]
  potency against influenza B strains: no potency
